The source made the active and inactive calls. The calls are words filed in the database; no cut-off is given here.
Tests used:
[1] = target: T1, Protein cereblon/Tyrosine-protein kinase BTK (Homo sapiens, UniProt Q06187+Q96SW2); test: PROTAC activity at CRBN/BTK in human JeKo-1 cells assessed as induction of BTK degradation at 100 nM incubated for 24 hrs by Western blotting analysis relative to control; type: cell-based
Target sequence in this assay (Q06187 2-659 limits assumed): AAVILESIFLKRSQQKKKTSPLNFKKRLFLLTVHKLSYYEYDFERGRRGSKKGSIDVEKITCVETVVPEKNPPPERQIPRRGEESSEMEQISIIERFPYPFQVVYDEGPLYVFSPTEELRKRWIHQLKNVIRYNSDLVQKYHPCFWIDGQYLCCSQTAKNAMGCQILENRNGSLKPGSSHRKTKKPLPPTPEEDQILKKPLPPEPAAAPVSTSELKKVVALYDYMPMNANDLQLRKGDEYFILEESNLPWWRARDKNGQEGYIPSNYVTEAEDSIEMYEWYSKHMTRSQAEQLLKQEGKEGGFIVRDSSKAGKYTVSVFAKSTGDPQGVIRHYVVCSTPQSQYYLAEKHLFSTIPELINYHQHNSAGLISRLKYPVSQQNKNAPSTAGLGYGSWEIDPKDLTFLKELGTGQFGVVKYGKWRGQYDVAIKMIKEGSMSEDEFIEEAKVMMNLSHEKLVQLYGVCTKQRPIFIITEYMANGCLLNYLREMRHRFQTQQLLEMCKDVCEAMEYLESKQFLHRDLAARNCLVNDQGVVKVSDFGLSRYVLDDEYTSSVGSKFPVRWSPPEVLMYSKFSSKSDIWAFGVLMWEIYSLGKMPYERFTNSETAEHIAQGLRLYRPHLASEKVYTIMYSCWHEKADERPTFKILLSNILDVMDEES
Target sequence in this assay (Q96SW2 whole entry partner): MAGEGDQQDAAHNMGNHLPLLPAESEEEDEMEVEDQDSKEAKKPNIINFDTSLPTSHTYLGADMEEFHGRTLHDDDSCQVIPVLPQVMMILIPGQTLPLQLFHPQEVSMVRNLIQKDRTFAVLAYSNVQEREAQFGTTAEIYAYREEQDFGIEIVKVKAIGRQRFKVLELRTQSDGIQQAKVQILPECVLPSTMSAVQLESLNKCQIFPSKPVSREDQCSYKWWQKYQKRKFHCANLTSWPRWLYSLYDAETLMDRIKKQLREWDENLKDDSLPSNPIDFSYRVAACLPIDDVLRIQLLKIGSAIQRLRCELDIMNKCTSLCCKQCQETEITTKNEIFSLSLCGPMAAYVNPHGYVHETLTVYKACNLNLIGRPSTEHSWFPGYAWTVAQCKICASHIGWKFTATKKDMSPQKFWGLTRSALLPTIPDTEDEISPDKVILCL

[2] = target: T1, Protein cereblon/Tyrosine-protein kinase BTK; test: PROTAC activity at CRBN/BTK in human JeKo-1 cells assessed as induction of BTK degradation at 1000 nM incubated for 24 hrs by Western blotting analysis relative to control; type: cell-based
Target sequence in this assay (Q06187 2-659 limits assumed): as the sequence (Q06187 2-659 limits assumed) above
Target sequence in this assay (Q96SW2 whole entry partner): as the sequence (Q96SW2 whole entry partner) above

[3] = target: T1, Protein cereblon/Tyrosine-protein kinase BTK; test: PROTAC activity at CRBN/BTK in human JeKo-1 cells assessed as induction of BTK degradation incubated for 24 hrs by Western blotting analysis; type: cell-based
Target sequence in this assay (Q06187 whole entry): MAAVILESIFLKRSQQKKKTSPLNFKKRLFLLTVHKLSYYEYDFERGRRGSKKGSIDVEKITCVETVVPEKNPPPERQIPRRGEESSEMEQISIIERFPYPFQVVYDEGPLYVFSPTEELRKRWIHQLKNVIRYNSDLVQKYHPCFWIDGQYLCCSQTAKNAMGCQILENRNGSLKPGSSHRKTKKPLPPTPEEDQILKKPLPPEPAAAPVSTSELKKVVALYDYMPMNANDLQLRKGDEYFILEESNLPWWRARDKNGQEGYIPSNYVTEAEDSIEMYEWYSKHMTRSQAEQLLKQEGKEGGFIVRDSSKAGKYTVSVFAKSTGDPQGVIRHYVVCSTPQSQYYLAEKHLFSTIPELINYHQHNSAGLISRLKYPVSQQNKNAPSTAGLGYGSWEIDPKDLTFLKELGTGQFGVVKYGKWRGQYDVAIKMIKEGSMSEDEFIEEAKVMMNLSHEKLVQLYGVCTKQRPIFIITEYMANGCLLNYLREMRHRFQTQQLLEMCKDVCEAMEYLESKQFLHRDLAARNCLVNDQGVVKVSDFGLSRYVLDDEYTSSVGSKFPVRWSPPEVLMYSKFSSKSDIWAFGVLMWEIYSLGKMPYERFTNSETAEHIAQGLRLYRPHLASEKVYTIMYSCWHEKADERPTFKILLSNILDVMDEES
Target sequence in this assay (Q96SW2 whole entry): as the sequence (Q96SW2 whole entry partner) above

[4] = target: T1, Protein cereblon/Tyrosine-protein kinase BTK; test: PROTAC activity at CRBN/BTK in human JeKo-1 cells assessed as induction of BTK degradation by measuring maximal efficacy at 1.6 to 1000 nM incubated for 24 hrs by Western blotting analysis relative to control; type: cell-based; details: dose 1.6-1000 nM
Target sequence in this assay (Q06187 2-659 limits assumed): as the sequence (Q06187 2-659 limits assumed) above
Target sequence in this assay (Q96SW2 whole entry partner): as the sequence (Q96SW2 whole entry partner) above

[5] = Metabolic stability in mouse liver microsomes assessed as half life at […] measured upto 60 mins in presence of NADPH by HPLC-MS/MS analysis; type: ADME, Microsome
[6] = target: T1, Protein cereblon/Tyrosine-protein kinase BTK; test: PROTAC activity at CRBN/BTK in human JeKo-1 cells assessed as induction of BTK degradation pre-treated with N-((1S,4S)-4-((5-(2-chloro-4-phenoxybenzoyl)-7H-pyrrolo[2,3-d]pyrimidin-4-yl)amino)cyclohexyl)-2-(1-(2-(1-(6-fluoro-2-(1-methyl-2,6-dioxopiperidin-3-yl)-1-oxoisoindolin-5-yl)piperidin-4-yl)ethyl)piperidin-4-yl)acetamide for 2 hrs followed by compound treatment for 12 hrs by Western blotting analysis; type: cell-based
Target sequence in this assay (Q06187 2-659 limits assumed): as the sequence (Q06187 2-659 limits assumed) above
Target sequence in this assay (Q96SW2 whole entry partner): as the sequence (Q96SW2 whole entry partner) above

[7] = target: T1, Protein cereblon/Tyrosine-protein kinase BTK; test: PROTAC activity at CRBN/BTK in human JeKo-1 cells assessed as effect on […] levels at 1.6 to 1000 nM incubated for 24 hrs by Western blotting analysis; type: cell-based; details: dose 1.6-1000 nM
Target sequence in this assay (Q06187 2-659 limits assumed): as the sequence (Q06187 2-659 limits assumed) above
Target sequence in this assay (Q96SW2 whole entry partner): as the sequence (Q96SW2 whole entry partner) above

[8] = system: BaF3; test: Antiproliferative activity against mouse BaF3 cells expressing BTK C481S mutant assessed as inhibition of cell growth measured after 3 days by CCK-8 assay; type: functional, cell-based; details: BaF3, 72 h
[9] = system: OCI-Ly10; test: Antiproliferative activity against human OCILY10 cells assessed as inhibition of cell growth measured after 3 days by CCK-8 assay; type: functional, cell-based; details: OCI-Ly10, 72 h
[10] = Drug concentration in BALB/c mouse plasma at 2 mg/kg, iv measured after 4 hrs by LC-MS/MS analysis; type: ADME, organism-based
[11] = target: T1, Protein cereblon/Tyrosine-protein kinase BTK; test: PROTAC activity at CRBN/BTK in human JeKo-1 cells assessed as effect on GSPT1 levels at 1.6 to 1000 nM incubated for 24 hrs by Western blotting analysis; type: cell-based; details: dose 1.6-1000 nM
Target sequence in this assay (Q06187 2-659 limits assumed): as the sequence (Q06187 2-659 limits assumed) above
Target sequence in this assay (Q96SW2 whole entry partner): as the sequence (Q96SW2 whole entry partner) above

[12] = system: JeKo-1; test: Antiproliferative activity against human JeKo-1 cells assessed as inhibition of cell growth measured after 3 days by CCK-8 assay; type: functional, cell-based; details: JeKo-1, 72 h
[13] = target: T1, Protein cereblon/Tyrosine-protein kinase BTK; test: PROTAC activity at CRBN/BTK in human JeKo-1 cells assessed as induction of BTK degradation pre-treated with MG-132 for 2 hrs followed by compound treatment for 12 hrs by Western blotting analysis; type: cell-based
[14] = system: TMD8; test: Antiproliferative activity against human TMD8 cells assessed as inhibition of cell growth measured after 3 days by CCK-8 assay; type: functional, cell-based; details: TMD8, 72 h
[15] = target: T1, Protein cereblon/Tyrosine-protein kinase BTK; test: PROTAC activity at CRBN/BTK in human JeKo-1 cells assessed as induction of BTK degradation by measuring maximal efficacy at 1.6 to 5000 nM incubated for 24 hrs by Western blotting analysis relative to control; type: cell-based; details: dose 1.6-5000 nM

| SMILES | Activity [1] | Activity [2] | DC50 [3] | also measured |
| --- | --- | --- | --- | --- |
| O=C1CCC(N2C(=O)c3ccc(N4CCC(N5CCC(N[C@H]6CC[C@@H](Nc7ncnc8[nH]cc(C(=O)c9ccc(Oc%10ccccc%10)cc9Cl)c78)CC6)CC5)CC4)cc3C2=O)C(=O)N1 (some centres undefined) | 15% | 18.5% |  |  |
| O=C1CCC(N2C(=O)c3ccc(N4CCC(CCN5CCC(CN[C@H]6CC[C@@H](Nc7ncnc8[nH]cc(C(=O)c9ccc(Oc%10ccccc%10)cc9Cl)c78)CC6)CC5)CC4)cc3C2=O)C(=O)N1 (some centres undefined) | 76% | 69.5% | 100 nM |  |
| O=C1CCC(N2C(=O)c3ccc(N4CCC(CN5CCC(CC(=O)N[C@H]6CC[C@@H](Nc7ncnc8[nH]cc(C(=O)c9ccc(Oc%10ccccc%10)cc9Cl)c78)CC6)CC5)CC4)cc3C2=O)C(=O)N1 (some centres undefined) | 79.5% | 73.5% | 24 nM |  |
| O=C1CCC(N2C(=O)c3ccc(N4CCC(CN5CC(CN[C@H]6CC[C@@H](Nc7ncnc8[nH]cc(C(=O)c9ccc(Oc%10ccccc%10)cc9Cl)c78)CC6)C5)CC4)cc3C2=O)C(=O)N1 (some centres undefined) | 29.5% | 38.5% |  |  |
| O=C1CCC(N2C(=O)c3ccc(N4CCC(CN5CC(N[C@H]6CC[C@@H](Nc7ncnc8[nH]cc(C(=O)c9ccc(Oc%10ccccc%10)cc9Cl)c78)CC6)C5)CC4)cc3C2=O)C(=O)N1 (some centres undefined) | 32% | 24% |  |  |
| O=C1CCC(N2C(=O)c3ccc(N4CCC(F)(CN5CCC(CC(=O)N[C@H]6CC[C@@H](Nc7ncnc8[nH]cc(C(=O)c9ccc(Oc%10ccccc%10)cc9Cl)c78)CC6)CC5)CC4)cc3C2=O)C(=O)N1 (some centres undefined) | 28.5% | 26% |  |  |
| O=C1CCC(N2C(=O)c3ccc(N4CCC(CC(=O)N5CCC(CN[C@H]6CC[C@@H](Nc7ncnc8[nH]cc(C(=O)c9ccc(Oc%10ccccc%10)cc9Cl)c78)CC6)CC5)CC4)cc3C2=O)C(=O)N1 (some centres undefined) | 45.5% | 57% |  |  |
| C=CC(=O)N1CCC[C@@H](n2nc(-c3ccc(Oc4ccccc4)cc3)c3c(N)ncnc32)C1 [IBRUTINIB] |  |  |  | IC50 [8]: 1550 nM; IC50 [9]: 4.5 nM; IC50 [12]: 79.8 nM; IC50 [14]: 4.7 nM |
| O=C1CCC(N2C(=O)c3cccc(NCCOCCOCCOCCOCCOCCNC(=O)N[C@H]4CC[C@@H](Nc5ncnc6[nH]cc(C(=O)c7ccc(Oc8ccccc8)cc7Cl)c56)CC4)c3C2=O)C(=O)N1 (some centres undefined) | 86.5% | 88.6% | 20 nM | Emax [4]: 93.8%; half-life [5]: 1.3 min; IC50 [8]: 1760 nM |
| O=C1CCC(N2C(=O)c3ccc(N4CCC(CN5CCC(CCN[C@H]6CC[C@@H](Nc7ncnc8[nH]cc(C(=O)c9ccc(Oc%10ccccc%10)cc9Cl)c78)CC6)CC5)CC4)cc3C2=O)C(=O)N1 (some centres undefined) | 57% | 77% |  |  |
| O=C(c1ccc(Oc2ccccc2)cc1Cl)c1c[nH]c2ncnc(N[C@@H]3CC[C@@H](CO)OC3)c12 [NEMTABRUTINIB] |  |  |  | IC50 [8]: 548 nM; IC50 [12]: 66.1 nM |

Further lines, with some results ahead:

| Activity [1] | Activity [2] | DC50 [3] | SMILES | also measured |
| --- | --- | --- | --- | --- |
| 3% | 5% |  | O=C1CCC(N2C(=O)c3ccc(N4CCC(N[C@H]5CC[C@@H](Nc6ncnc7[nH]cc(C(=O)c8ccc(Oc9ccccc9)cc8Cl)c67)CC5)CC4)cc3C2=O)C(=O)N1 (some centres undefined) |  |
| 31.5% | 74% |  | O=C1CCC(N2C(=O)c3ccc(N4CCC(CN5CCCC(N[C@H]6CC[C@@H](Nc7ncnc8[nH]cc(C(=O)c9ccc(Oc%10ccccc%10)cc9Cl)c78)CC6)C5)CC4)cc3C2=O)C(=O)N1 (some centres undefined) |  |
| 91% | 89% | 7 nM | O=C1CCC(N2Cc3cc(N4CCC(CCN5CCC(CC(=O)N[C@H]6CC[C@@H](Nc7ncnc8[nH]cc(C(=O)c9ccc(Oc%10ccccc%10)cc9Cl)c78)CC6)CC5)CC4)c(F)cc3C2=O)C(=O)N1 (some centres undefined) | Emax [4]: 96.5%; half-life [5]: > 145 min; Activity [6]: inactive; Activity [7]: inactive; IC50 [8]: 86 nM; IC50 [9]: 2.3 nM; concentration at 4 h [10]: > 10 nM; Activity [11]: inactive; IC50 [12]: 38.1 nM; Activity [13]: inactive; IC50 [14]: 4.5 nM |
| 39% | 42.5% |  | O=C1CCC(N2C(=O)c3ccc(N4CCC(N5CCC(CN[C@H]6CC[C@@H](Nc7ncnc8[nH]cc(C(=O)c9ccc(Oc%10ccccc%10)cc9Cl)c78)CC6)CC5)CC4)cc3C2=O)C(=O)N1 (some centres undefined) |  |
| 61% | 50% |  | O=C1CCC(N2C(=O)c3ccc(N4CCC(CN5CCC(C(=O)N[C@H]6CC[C@@H](Nc7ncnc8[nH]cc(C(=O)c9ccc(Oc%10ccccc%10)cc9Cl)c78)CC6)CC5)CC4)cc3C2=O)C(=O)N1 (some centres undefined) |  |
| 51.5% | 62% |  | O=C1CCC(N2C(=O)c3ccc(N4CCC(CN5CCC(N[C@H]6CC[C@@H](Nc7ncnc8[nH]cc(C(=O)c9ccc(Oc%10ccccc%10)cc9Cl)c78)CC6)CC5)CC4)cc3C2=O)C(=O)N1 (some centres undefined) |  |
| 87% | 88.5% | 9.3 nM | O=C1CCC(N2C(=O)c3cc(F)c(N4CCC(CCN5CCC(CC(=O)N[C@H]6CC[C@@H](Nc7ncnc8[nH]cc(C(=O)c9ccc(Oc%10ccccc%10)cc9Cl)c78)CC6)CC5)CC4)cc3C2=O)C(=O)N1 (some centres undefined) | Emax [15]: 93.6%; half-life [5]: 55.4 min; IC50 [9]: 28.2 nM; IC50 [12]: 116 nM; IC50 [14]: 47 nM |
| 83% | 87% | 7.4 nM | O=C1CCC(N2Cc3ccc(N4CCC(CCN5CCC(CC(=O)N[C@H]6CC[C@@H](Nc7ncnc8[nH]cc(C(=O)c9ccc(Oc%10ccccc%10)cc9Cl)c78)CC6)CC5)CC4)cc3C2=O)C(=O)N1 (some centres undefined) | Emax [4]: 90.6%; half-life [5]: > 145 min; IC50 [9]: 5.9 nM; IC50 [12]: 34.4 nM; IC50 [14]: 9.3 nM |
| 85% | 82.5% | 8.8 nM | O=C1CCC(N2C(=O)c3ccc(N4CCC(CCN5CCC(CC(=O)N[C@H]6CC[C@@H](Nc7ncnc8[nH]cc(C(=O)c9ccc(Oc%10ccccc%10)cc9Cl)c78)CC6)CC5)CC4)cc3C2=O)C(=O)N1 (some centres undefined) | Emax [15]: 94.1%; half-life [5]: 86 min; IC50 [9]: 15.4 nM; IC50 [12]: 59.5 nM; IC50 [14]: 82.1 nM |
| 30% | 21% |  | O=C1CCC(N2C(=O)c3ccc(N4CC(N5CCC(CN[C@H]6CC[C@@H](Nc7ncnc8[nH]cc(C(=O)c9ccc(Oc%10ccccc%10)cc9Cl)c78)CC6)CC5)C4)cc3C2=O)C(=O)N1 (some centres undefined) |  |
| 48% | 63.5% |  | O=C1CCC(N2C(=O)c3ccc(N4CCC(CN5CCC(CN[C@H]6CC[C@@H](Nc7ncnc8[nH]cc(C(=O)c9ccc(Oc%10ccccc%10)cc9Cl)c78)CC6)CC5)CC4)cc3C2=O)C(=O)N1 (some centres undefined) |  |
| 80.4% | 86% | 10.1 nM | O=C1CCC(N2Cc3cc(N4CCC(CCN5CCC(CC(=O)N[C@H]6CC[C@@H](Nc7ncnc8[nH]cc(C(=O)c9ccc(Oc%10ccccc%10)cc9Cl)c78)CC6)CC5)CC4)ccc3C2=O)C(=O)N1 (some centres undefined) | Emax [4]: 90.1%; half-life [5]: 52 min; IC50 [9]: 15.7 nM; IC50 [14]: 15.5 nM |
